Measurements as given in ChEMBL document CHEMBL4483862, “Open-source discovery of chemical leads for next-generation chemoprotective antimalarials” (2018).

Test system: Plasmodium berghei
Experiment: Luciferase/luciferin-expressing antifolate-resistant parasites were used to infect a culture of HepG2 cells that were pre-incubated with compounds. Infected hepatocytes emit light due to the luciferase reaction. Assay results are presented as the percent inhibition of light emission compared to control. […]
Format: functional
Conditions: sporozoite; for IC90: read-out: LUCIFERASE INFECTION ASSAY - IC90
[1] = read-out: LUCIFERASE INFECTION ASSAY - IC50

| Compound | IC90 [µM] | other results |
| --- | --- | --- |
| Cc1ccccc1-c1cn2c(-c3cccc(O)c3)cnc2cn1 | 8.68 | IC50 (HEPG2TOX_HILL_SLOPE 2.6, HEPG2TOX_R_SQUARED 0.936, PBLUC_HILL_SLOPE 3.74, PBLUC_R_SQUARED 0.417, read-out: LUCIFERASE INFECTION ASSAY - IC50): 4.82 µM |
| COc1ccc(C(N)c2csc(NC(=O)Nc3ccccc3C(C)C)n2)cc1 (stereo not drawn) | 3.02 | IC50 (PBLUC_HILL_SLOPE 13.4, PBLUC_R_SQUARED 0.332, read-out: LUCIFERASE INFECTION ASSAY - IC50): 2.57 µM |
| COc1cccc(N2C(=O)CC(n3nc(Nc4cccc(C)c4)sc3=S)C2=O)c1 (stereo not drawn) | > 10 | IC50 [1]: > 10 µM |
| CN(C)c1ccc(-c2cnc3cnc(-c4cnn(Cc5ccccc5)c4)cn23)cc1 | > 8.37 | IC50 (FFLUC_HILL_SLOPE 6.21, FFLUC_R_SQUARED 0.0566, PBLUC_HILL_SLOPE 1.47, PBLUC_R_SQUARED 0.566, read-out: LUCIFERASE INFECTION ASSAY - IC50): 3.91 µM |
| Cc1nsc(N)c1C(=O)OCc1cc(=O)n2c3c(sc2n1)CCCC3 | > 10 | IC50 (FFLUC_HILL_SLOPE 11.9, FFLUC_R_SQUARED 0.297, read-out: LUCIFERASE INFECTION ASSAY - IC50): > 10 µM |
| COc1ncccc1C(=O)NNC(=O)c1nc(-c2ccccc2)n(-c2ccccc2)n1 | 3.43 | IC50 (HEPG2TOX_HILL_SLOPE 3.74, HEPG2TOX_R_SQUARED 0.853, PBLUC_HILL_SLOPE 83.7, PBLUC_R_SQUARED 0.266, read-out: LUCIFERASE INFECTION ASSAY - IC50): 3.34 µM |
| CC(=O)c1ccc(NC(=O)Nc2ccc3nc(-c4cccc(C(F)(F)F)c4)nn3c2)cc1 | 7.78 | IC50 [1]: 3.53 µM |
| CCCCn1c(N)c(N(C)CC(=O)Nc2scc(-c3ccccc3)c2C(=O)OCC)c(=O)[nH]c1=O | 8.26 | IC50 (FFLUC_HILL_SLOPE 12.3, FFLUC_R_SQUARED 0.419, PBLUC_HILL_SLOPE 4.64, PBLUC_R_SQUARED 0.375, read-out: LUCIFERASE INFECTION ASSAY - IC50): 5.15 µM |
| CC(Oc1ccc(-c2ccc(C#N)cc2)cc1)C(=O)C12CC3CC(CC(C3)C1)C2 (stereo not drawn) | > 10 | IC50 (PBLUC_HILL_SLOPE 2.77, PBLUC_R_SQUARED 0.53, read-out: LUCIFERASE INFECTION ASSAY - IC50): 5.65 µM |
| COc1ccc(CCN2C(=O)N(C(C)C)C(=O)C23CCN(Cc2ccc(Cl)cc2)CC3)cc1 | > 7.02 | IC50 (PBLUC_HILL_SLOPE 14.8, PBLUC_R_SQUARED 0.317, read-out: LUCIFERASE INFECTION ASSAY - IC50): 6.11 µM |
| O=C1CCC(c2ccccc2)C(=O)/C1=N\Nc1ccccc1Cl (stereo not drawn) | > 10.1 | IC50 [1]: > 10.1 µM |
| CN(CC(=O)Nc1ccc(OC(F)(F)F)cc1)Cc1cc(=O)n2c([nH]c3ccccc32)c1C#N | > 10 | IC50 (HEPG2TOX_HILL_SLOPE 2.12, HEPG2TOX_R_SQUARED 0.883, PBLUC_HILL_SLOPE 1.9, PBLUC_R_SQUARED 0.564, read-out: LUCIFERASE INFECTION ASSAY - IC50): 4.93 µM |
| COc1ccc(OCCN2CCN(c3ccnc4cc(Cl)ccc34)CC2)cc1 | > 10 | IC50 (HEPG2TOX_HILL_SLOPE 3.33, HEPG2TOX_R_SQUARED 0.981, PBLUC_HILL_SLOPE 2.57, PBLUC_R_SQUARED 0.319, read-out: LUCIFERASE INFECTION ASSAY - IC50): 5.62 µM |
| Cc1ccc(S(=O)(=O)c2ccc(NNS(=O)(=O)c3cccc([N+](=O)[O-])c3)cc2)cc1 | > 10 | IC50 [1]: > 10 µM |
| CCCCNS(=O)(=O)c1ccc2nc(SCC3CCCO3)[nH]c2c1 (stereo not drawn) | > 10 | IC50 (HEPG2TOX_HILL_SLOPE 0.14, HEPG2TOX_R_SQUARED 0.119, PBLUC_HILL_SLOPE 2.38, PBLUC_R_SQUARED 0.33, read-out: LUCIFERASE INFECTION ASSAY - IC50): 9.76 µM |
| Cc1nn(-c2ccccc2)c2nc(-c3ccccc3)c(-c3nc4ccccc4[nH]3)c(-c3ccncc3)c12 | > 10 | IC50 (FFLUC_HILL_SLOPE 17.6, FFLUC_R_SQUARED 0.574, PBLUC_HILL_SLOPE 2.67, PBLUC_R_SQUARED 0.448, read-out: LUCIFERASE INFECTION ASSAY - IC50): 7.61 µM |
| CC(C)C(NC(=O)c1ccc(C(C)(C)C)cc1)C(=O)Nc1ncc(Cc2ccc(Cl)cc2)s1 (stereo not drawn) | > 10 | IC50 [1]: > 10 µM |
| CN1CCN(c2ccc(-c3cn4c(-c5ccccc5Cl)cnc4cn3)cn2)CC1 | > 8.15 | IC50 (PBLUC_HILL_SLOPE 0.491, PBLUC_R_SQUARED 0.57, read-out: LUCIFERASE INFECTION ASSAY - IC50): 3.67 µM |
| Cc1cccc(NC(=O)c2ccc(Cl)c(S(=O)(=O)Nc3c(C)n(C)n(-c4ccccc4)c3=O)c2)n1 | > 10 | IC50 (PBLUC_HILL_SLOPE 1.97, PBLUC_R_SQUARED 0.221, read-out: LUCIFERASE INFECTION ASSAY - IC50): 9.2 µM |
| Cc1cc(C(=O)COC(=O)c2ccccc2OCc2ccccc2Cl)c(C)n1CC1CCCO1 (stereo not drawn) | > 10 | IC50 (HEPG2TOX_HILL_SLOPE 0.0867, HEPG2TOX_R_SQUARED 0.214, read-out: LUCIFERASE INFECTION ASSAY - IC50): > 10 µM |

| Compound | IC90 [µM] | other results |
| --- | --- | --- |
| Cc1ccc(Cn2nnc(-c3ccccc3C)n2)cc1 | > 12.5 | IC50 [1]: > 12.5 µM |
| CCCNc1ccc2ncc(-c3ccc(OC)c(OC)c3)n2n1 | 2.73 | IC50 (HEPG2TOX_HILL_SLOPE 2.36, HEPG2TOX_R_SQUARED 0.919, PBLUC_HILL_SLOPE 2.02, PBLUC_R_SQUARED 0.782, read-out: LUCIFERASE INFECTION ASSAY - IC50): 0.918 µM |
| O=C(Nc1nonc1-c1cccs1)c1ccc(Br)cc1 | 6.36 | IC50 (HEPG2TOX_HILL_SLOPE 7.96, HEPG2TOX_R_SQUARED 0.814, PBLUC_HILL_SLOPE 7.42, PBLUC_R_SQUARED 0.0569, read-out: LUCIFERASE INFECTION ASSAY - IC50): 4.73 µM |
| COc1ccccc1-c1ccc2ncc(-c3cccc(NC(C)=O)c3)n2n1 | > 10 | IC50 (HEPG2TOX_HILL_SLOPE 1.56, HEPG2TOX_R_SQUARED 0.888, PBLUC_HILL_SLOPE 1.15, PBLUC_R_SQUARED 0.442, read-out: LUCIFERASE INFECTION ASSAY - IC50): 4.22 µM |
| CCCN1CCc2nc(Nc3ccc(OCc4ccccc4)cc3)ncc2C1 | > 8.81 | IC50 [1]: > 8.81 µM |
| OCc1ccc(-c2cn3c(-c4cccc(Cl)c4)cnc3cn2)cc1 | > 9.83 | IC50 (PBLUC_HILL_SLOPE 0.56, PBLUC_R_SQUARED 0.237, read-out: LUCIFERASE INFECTION ASSAY - IC50): > 9.83 µM |
| COc1ccc(C(N)=O)cc1NC(=O)NCc1ccc(N2CCCCCC2)nc1 | > 10 | IC50 [1]: > 10 µM |
| CC(C)Cn1c(N)c(C(=O)COC(=O)c2cc(-c3cccs3)nc3ccccc23)c(=O)n(C)c1=O | 3.23 | IC50 (FFLUC_HILL_SLOPE 33.5, FFLUC_R_SQUARED 0.479, PBLUC_HILL_SLOPE 4.72, PBLUC_R_SQUARED 0.427, read-out: LUCIFERASE INFECTION ASSAY - IC50): 2.03 µM |
| O=C(Nc1ccc(F)cc1)OCCSc1ccc([N+](=O)[O-])c2nonc12 | > 8.72 | IC50 [1]: > 8.72 µM |
| CN(CC(=O)Nc1cccc(F)c1)C(=O)c1csc(COc2ccc(Cl)cc2)n1 | 6.38 | IC50 (HEPG2TOX_HILL_SLOPE 11.6, HEPG2TOX_R_SQUARED 0.266, PBLUC_HILL_SLOPE 151, PBLUC_R_SQUARED 0.192, read-out: LUCIFERASE INFECTION ASSAY - IC50): 6.29 µM |
| CCn1c(SCC(=O)Nc2cc(Cl)ccc2O)nnc1-c1ccncc1 | > 8.46 | IC50 [1]: > 8.46 µM |
| Cn1cccc1C(=O)Nc1nc(-c2ccccn2)cs1 | 4.04 | IC50 (HEPG2TOX_HILL_SLOPE 2.43, HEPG2TOX_R_SQUARED 0.643, PBLUC_HILL_SLOPE 14.5, PBLUC_R_SQUARED 0.519, read-out: LUCIFERASE INFECTION ASSAY - IC50): 3.47 µM |
| O=C(COc1ccccc1)Nc1nc2ccccn2c1C(=O)NC1CCCCC1 | 6.99 | IC50 (HEPG2TOX_HILL_SLOPE 7.86, HEPG2TOX_R_SQUARED 0.377, PBLUC_HILL_SLOPE 5.91, PBLUC_R_SQUARED 0.352, read-out: LUCIFERASE INFECTION ASSAY - IC50): 4.82 µM |
| O=C(Nc1cc(Cl)cc(Cl)c1)Nc1cc(Cl)cc(Cl)c1 | 1.35 | IC50 (HEPG2TOX_HILL_SLOPE 1.67, HEPG2TOX_R_SQUARED 0.958, PBLUC_HILL_SLOPE 0.797, PBLUC_R_SQUARED 0.657, read-out: LUCIFERASE INFECTION ASSAY - IC50): 0.0855 µM |
| FC(F)(F)c1nc2ccccc2nc1-n1nccc1-c1ccc(Cl)cc1 | > 8.81 | IC50 (FFLUC_HILL_SLOPE 16.3, FFLUC_R_SQUARED 0.637, HEPG2TOX_HILL_SLOPE 7.13, HEPG2TOX_R_SQUARED 0.448, PBLUC_HILL_SLOPE 3.24, PBLUC_R_SQUARED 0.732, read-out: LUCIFERASE INFECTION ASSAY - IC50): 5.14 µM |
| COc1ccc(C2C3CSc4ccccc4C3=NN2c2ccccc2)cc1 (stereo not drawn) | > 8.86 | IC50 (FFLUC_HILL_SLOPE 1.37, FFLUC_R_SQUARED 0.894, PBLUC_HILL_SLOPE 1.03, PBLUC_R_SQUARED 0.404, read-out: LUCIFERASE INFECTION ASSAY - IC50): 4.95 µM |
| Cc1cccc(C(=O)N[C@H](C(=O)Nc2nc(-c3ccccn3)cs2)C(C)C)c1 | 3.94 | IC50 (HEPG2TOX_HILL_SLOPE 1.86, HEPG2TOX_R_SQUARED 0.615, PBLUC_HILL_SLOPE 3.31, PBLUC_R_SQUARED 0.556, read-out: LUCIFERASE INFECTION ASSAY - IC50): 2.03 µM |
| Cc1cc(C(O)(C(F)(F)F)C(F)(F)F)c(C)n1-c1ccc(N(C)C)cc1 | > 10 | IC50 (HEPG2TOX_HILL_SLOPE 5.45, HEPG2TOX_R_SQUARED 0.58, PBLUC_HILL_SLOPE 4.49, PBLUC_R_SQUARED 0.403, read-out: LUCIFERASE INFECTION ASSAY - IC50): 7.53 µM |
| COc1ccc2c(-c3ccccc3)cc(NCCc3ccc(S(N)(=O)=O)cc3)nc2c1 | > 10 | IC50 [1]: 8.55 µM |
